Series [1] concerns the target phosphodiesterase. Put plainly: Inhibition of the degradation of cyclic AMP by phosphodiesterase (spectrophotometry). Format: biochemical. The following applies: rat brain enzyme extract, 25° C., 265 nm. How it is done:
Inhibition of the Degredation Reaction of Cyclic AMP by Phosohodiesterase
The enzyme extract necessary for this study is prepared from rat brain.
After decapitation, the brain is removed, weighed and frozen for half an hour at -70° C. The preparation, maintained in ice, is then diluted and homogenized in 50% glycerol containing 50 mmol tris(hydroxymethyl)aminomethane and 50 mmol magnesium sulfate, in the proportion of 5 ml per gram of brain. The preparation is then centrifuged. The supernatent is distributed in aliquots and stored at 4° C.
In the study, the enzyme extract is incubated :n the presence of cyclic AMP (Boehringer® Ref. 102300), alkaline phosphatase (Boehringer® Ref 108138), adenosine deaminase (Boehringer® Ref. 102091) and increasing amounts of the compounds of the invention. The kinetics of the degredation of cyclic AMP is followed by spectrophotometry at 25° C. A mixture devoid of alkaline phosphatase and adenosine deaminase is used as blank. The measurement of the optical density is carried out at 265 nm. The concentration of the compounds of the invention leading to a 50% inhibition of the enzymatic reaction (IC50) is calculated. Two reference substances, diosmine and theoprylline, are studied according to the same methodology.

Series [2] deals with polymorphonuclear leukocytes. Briefly: Oxygen-containing free radical production by polymorphonuclear leukocytes (chemiluminescence). The format is cell-based. The conditions noted are these: Leukocyte; rat polymorphonuclear leukocytes, Zymosan, Luminol; read-out: IC50, inhibition of the chemiluminescence reaction (free radical production). The source says: Evaluation of the Pharmacodynamic Activity with Respect to Oxygen-Containing Free Radicals Produced by Polymorphonuclear Leukocytes The possible pharmacodynamic activity of the compounds of the invention with respect to the production of free radicals by polymorphonuclear leukocytes was investigated in vitro. The cellular model used was rat polymorphonuclear leukocytes. This model is capable of producing free radicals in a manner that can be monitored. The production of free radicals was quantified by measurement of the chemiluminescence, which is proportional to their quantity. Quantities of 2×10^6 polymorphonuclear leukocyte cells, isolated from heparinized rat blood, are mixed with solutions of increasing concentrations of the compounds of the invention (2×10^-4 M to 2×10^-8 M). Appropriate amounts of Hanks' solution, Zymosan® (Sigma 24250) and Luminol® (Merck 82007) are then added successively. The solutions are kept shielded from the light, and transferred rapidly to a liquid scintillation counter. In the "blank" sample, the polymorphonuclear leukocytes are replaced by an equivalent volume of Hanks' solution, and in the "control" sample, the solution of "test compounds" is replaced by a Hanks' solution. The same study was carried out with a reference product: diosmine. The percentage inhibition of free radical production was calculated by the following formula: [formula] Cl control: Maximum chemiluminescence of "control" sample Cl compounds: Maximum chemiluminescence of "test compounds" sample Cl blank: Maximum chemiluminescence of "blank" sample […]

The nature of series [3]: Solubility in water. Format: physicochemical. The following applies: addition salt.
Series [4] relates to Croton Oil-Induced Edema of the Mouse's Ear. Briefly: Croton oil-induced edema of the mouse's ear. The format is in vivo, CD1 (Charles River) male mice. The conditions noted are these: single dose, sacrificed six hours after irritation. How it is done:
Croton Oil-Induced Edema of the Mouse's Ear This test consists in inflaming the mouse's ears with an irritant solution based on croton oil, and in testing the preventive effect of the test compounds administered per os. The tests were carried out on batches of at least 8 CD1 (Charles River) male mice of average weight 18-20 g. The compounds of the invention were administered by gavage with a tube, in a single dose, on the basis of 0.1 ml of liquid per 10 g of mouse. The mouse was deprived of food, but not of drink, 2 hours before the gavage and until after the irritation. Thirty minutes after the gavage, each mouse was lightly anesthetized with ether. 10 μl of the irritant solution were then deposited by means of an Eppendorf pipette on the cutaneous surface of the pinna of the right ear; the left ear, which was not subjected to any treatment, acted as control. The animal was then replaced in the cage and sacrificed six hours later. The ears were sectioned along the cartilagineous edge and weighed immediately. To assess the activity of the product, the mean increase in weight of the ears of the treated batches (m) is compared by Student's test with that of the untreated control batch (mc).

What is called IC50 is the concentration that gives 50% inhibition. What is called solubility is the concentration that dissolves in the medium under given conditions.

Regarding `COc1ccc(-c2cc(=O)c3c(O)cc(O[C@@H]4O[C@H](CO[C@@H]5O[C@@H](C)[C@H](O)[C@@H](O)[C@H]5O)[C@@H](O)[C@H](O)[C@H]4O)cc3o2)cc1O` [DIOSMINE, diosmine, reference compound], the results for the IC50 in series [1] and in series [2] were 100 µM and 40 µM, respectively.
As to `CCOC(=O)COc1cc(-c2cc(=O)c3c(O)cc(OCC(=O)N4CCN(Cc5ccc(OC)c(OC)c5OC)CC4)cc3o2)ccc1OC` [Example 1 (monophosphate), 7-[2-{4-[(2,3,4-trimethoxyphenyl)methyl]-1-piperazinyl}-2-oxoethoxy-5-hydroxy-4'-methoxy-3'-(2-ethoxy-2-oxoethoxy)flavone monophosphate], in series [3], the solubility came out at 158 mg/mL.
On to `CCOC(=O)COc1cc(OCC(=O)N2CCN(Cc3ccc(OC)c(OC)c3OC)CC2)c2c(=O)cc(-c3ccc(OC)c(OCC(=O)OCC)c3)oc2c1.Cl` [Example 2 (hydrochloride), 5-[2-{4-[(2,3,4-Trimethoxyphenyl)methyl]-1-piperazinyl}-2-oxoethoxy]-7,3'-bis(2-ethoxy-2-oxoethoxy)-4'-methoxyflavone hydrochloride], for which the solubility in series [3] is 163 mg/mL. Besides, the “I (percentage inhibition of ear edema)” value in series [4] (166 mg.kg^-1 per os, p < 0.05) is recorded as -34%.
Regarding `CCOC(=O)COc1cc(OCC(=O)N2CCN(Cc3ccc(OC)c(OC)c3OC)CC2)c2c(=O)cc(-c3ccc(OC)c(OCC(=O)OCC)c3)oc2c1` [Example 2, 5-[2-{4-[(2,3,4-Trimethoxyphenyl)methyl]-1-piperazinyl}-2-oxoethoxy-]-7,3'-bis(2-ethoxy-2-oxoethoxy)-4'-methoxyflavone], the IC50 was 20 µM in series [1] and 4 µM in series [2].
Turning to `COc1ccc(-c2cc(=O)c3c(O)cc(O[C@@H]4O[C@H](CO[C@@H]5O[C@@H](C)[C@H](O)[C@@H](O)[C@H]5O)[C@@H](O)[C@H](O)[C@H]4O)cc3o2)cc1OCC(=O)N1CCN(Cc2ccc(OC)c(OC)c2OC)CC1` [Example 3 (hemitartrate), 3'-[2-{4-[(2,3,4-Trimethoxyphenyl)methyl]-1-piperazinyl}-2-oxoethoxy]-4'-methoxy-5-hydroxyflavone 7-chamnoglucoside hemitartrate], the solubility in series [3] is 200 mg/mL. The “I (percentage inhibition of ear edema)” value in series [4] (200 mg.kg^-1 per os, p < 0.01) is recorded as -26%.
`COc1ccc(-c2cc(=O)c3c(O)cc(O[C@@H]4O[C@H](CO[C@@H]5O[C@@H](C)[C@H](O)[C@@H](O)[C@H]5O)[C@@H](O)[C@H](O)[C@H]4O)cc3o2)cc1OCC(=O)N1CCN(Cc2ccc(OC)c(OC)c2OC)CC1` [Example 3, 3'-[2-{4-[(2,3,4-Trimethoxyphenyl)methyl]-1-piperazinyl}-2-oxoethoxy]-4'-methoxy-5-hydroxyflavone 7-chamnoglucoside] had an IC50 in series [1] of 25 µM.
On to `COc1ccc(-c2cc(=O)c3c(O)cc(O[C@@H]4O[C@H](CO)[C@@H](O)[C@H](O)[C@H]4O)cc3o2)cc1OCC(=O)N1CCN(Cc2ccc(OC)c(OC)c2OC)CC1` [Example 4 (monophosphate), 3'-[2-{4-[(2,3,4-Trimethoxyphenyl)methyl]-1-piperazinyl}-2-oxoethoxy]-4'-methoxy-5-hydroxyflavone 7β-glucoside monophosphate], for which the solubility in series [3] was 43 mg/mL. In series [4] (173 mg.kg^-1 per os, p < 0.05), the “I (percentage inhibition of ear edema)” value is listed as -28%.
For `COc1ccc(-c2cc(=O)c3c(O)cc(O)cc3o2)cc1OCC(=O)N1CCN(Cc2ccc(OC)c(OC)c2OC)CC1` [Example 5 (methanesulfonate), 3'-[2-{4-[(2,3,4-trimethoxyphenyl)methyl]-1-piperazinyl}-2-oxoethoxy]-4'-methoxy-5,7-dihydroxyflavone], the solubility in series [3] came out at 35 mg/mL.
On the same count and under the same terms, the value for `CCOC(=O)COc1cc(O)c2c(=O)cc(-c3ccc(OC)c(OCC(=O)N4CCN(Cc5ccc(OC)c(OC)c5OC)CC4)c3)oc2c1` [Example 6 (monophosphate), 3'[2-{4-[(2,3,4-Trimethoxyphenyl)methyl]-1-piperazinyl}-2-oxoethoxy]-4'-methoxy-5-hydroxy-7-(2-ethoxy-2-oxoethyoxy)flavone phosphate] was 39.5 mg/mL.
Take `CCOC(=O)COc1cc(O)c2c(=O)cc(-c3ccc(OC)c(OCC(=O)N4CCN(Cc5ccc(OC)c(OC)c5OC)CC4)c3)oc2c1` [Example 6, 3'-[2-{4-[(2,3,4-Trimethoxyphenyl)methyl]-1-piperazinyl}-2-oxoethoxy]-4'-methoxy-5-hydroxy-7-(2-ethoxy-2-oxoethoxy)flavone]: in series [2], the IC50 came out at 10 µM.
Take `COc1ccc(-c2cc(=O)c3c(O)cc(OCC(=O)N4CCN(Cc5ccc(OC)c(OC)c5OC)CC4)cc3o2)cc1OCC(=O)N1CCN(Cc2ccc(OC)c(OC)c2OC)CC1` [Example 7 (biphosphate), 7,3'-Bis[2-{4-[(2,3,4-trimethoxyphenyl)methyl]-1-piperazinyl}-2-oxoethoxy]-5-hydroxy-4'-methoxyflavone biphosphate]: in series [3], the solubility is 221 mg/mL.
For `COc1ccc(-c2cc(=O)c3c(O)cc(OCC(=O)N4CCN(Cc5ccc(OC)c(OC)c5OC)CC4)cc3o2)cc1OCC(=O)N1CCN(Cc2ccc(OC)c(OC)c2OC)CC1` [Example 7, 7,3'-Bis[2-{4-[(2,3,4-trimethoxyphenyl)methyl]-1-piperazinyl}-2-oxoethoxy]-5-hydroxy-4'-methoxyflavone], half-maximal inhibition in series [1] (IC50) required 10 µM.
Regarding `COc1ccc(C2CC(=O)c3c(O)cc(OCC(=O)N4CCN(Cc5ccc(OC)c(OC)c5OC)CC4)cc3O2)cc1O.CS(=O)(=O)O` (stereo not drawn) [Example 8 (methanesulfonate), 7-[2-{4-[(2,3,4-Trimethoxyphenyl)methyl]-1-piperazinyl}-2-oxoethoxy]-5,3'-dihydroxy-4'-methoxyflavanone methanesulfonate], the solubility in series [3] stood at 1.4 mg/mL.
As to `COc1ccc(C2CC(=O)c3c(O)cc(OCC(=O)N4CCN(Cc5ccc(OC)c(OC)c5OC)CC4)cc3O2)cc1O` (stereo not drawn) [Example 8, 7-[2-{4-[(2,3,4-Trimethoxyphenyl)methyl]-1-piperazinyl}-2-oxoethoxy]-5,3'-dihydroxy-4'-methoxyflavanone], the IC50 in series [1] was determined as 57 µM; in series [2], 15 µM.
For the compound `Cn1c(=O)c2[nH]cnc2n(C)c1=O` [THEOPHYLLINE, theophylline, reference compound], the midpoint of inhibition in series [1], the IC50, lay at 1000 µM.

Values taken from patent publication US4970301A, “2-(piperazinyl)-2-oxoethylene-substituted flavonoid compounds” (Adir et Cie, priority 1987, dated 1990).
